Legend:
topoisomerase II α = topoisomerase II α (Homo sapiens, UniProt P11388); assay: Band depletion assay (extractable topoisomerase II α, western blot); format: cell-based; set-up: OC—NYH cells were exposed to increasing concentrations of NSC 35866 for one hour and total proteins were extracted at 0.3 M NaCl; endogenous in cells; host or cells: human small cell lung cancer OC-NYH cells; conditions: OC—NYH cells, one hour
Experimental: Band depletion assay was performed essentially as described in Sehested et al., 1998. The amount of extractable topoisomerase II α was detected by the ECL detection method (Amersham, Buckinghamshire, United Kingdom). OC—NYH cells were exposed to increasing concentrations of NSC 35866 for one hour and total proteins were extracted at 0.3 M NaCl. For detection of topoisomerase II α, a polyclonal primary antibody (Bio Trend, Cologne, Germany) was used. Horseradish peroxidase linked anti-rabbit antibody (Amersham, Buckinghamshire, United Kingdom) was used as secondary antibody.
FIG. 10 describes the results of studies of the ability of NSC 35866 to trap human topoisomerase II α as a non-extractable complex on DNA in a dose dependent manner. The ability of NSC 35866 to stabilise topoisomerase II α as a non-extractable complex on DNA in human SCLC OC—NYH cells was assessed using the band depletion assay as described herein. The amounts of topoisomerase II α was visualised by western blotting using a topoisomerase II α specific primary antibody: Lane 1, no drug; Lane 2, 200 μM ICRF-187; Lane 3, 200 μM NSC 35866; Lane 4, 500 μM NSC 35866; Lane 5, 1000 μM NSC 35866. Band depletion of the topoisomerase II α isoform caused by NSC 35866 was detected in two independent experiments.

[1] = target: T1, human topoisomerase II α-DNA covalent complexes (Homo sapiens, UniProt P11388); assay: Topoisomerase II DNA cleavage assay (phenol-chloroform extraction, Δcpm); format: biochemical; conditions: 1000 μM
T1 construct: made in house; host or cells: yeast (over-expressing yeast cells)
T1 sequence (P11388 whole entry, one chain of several): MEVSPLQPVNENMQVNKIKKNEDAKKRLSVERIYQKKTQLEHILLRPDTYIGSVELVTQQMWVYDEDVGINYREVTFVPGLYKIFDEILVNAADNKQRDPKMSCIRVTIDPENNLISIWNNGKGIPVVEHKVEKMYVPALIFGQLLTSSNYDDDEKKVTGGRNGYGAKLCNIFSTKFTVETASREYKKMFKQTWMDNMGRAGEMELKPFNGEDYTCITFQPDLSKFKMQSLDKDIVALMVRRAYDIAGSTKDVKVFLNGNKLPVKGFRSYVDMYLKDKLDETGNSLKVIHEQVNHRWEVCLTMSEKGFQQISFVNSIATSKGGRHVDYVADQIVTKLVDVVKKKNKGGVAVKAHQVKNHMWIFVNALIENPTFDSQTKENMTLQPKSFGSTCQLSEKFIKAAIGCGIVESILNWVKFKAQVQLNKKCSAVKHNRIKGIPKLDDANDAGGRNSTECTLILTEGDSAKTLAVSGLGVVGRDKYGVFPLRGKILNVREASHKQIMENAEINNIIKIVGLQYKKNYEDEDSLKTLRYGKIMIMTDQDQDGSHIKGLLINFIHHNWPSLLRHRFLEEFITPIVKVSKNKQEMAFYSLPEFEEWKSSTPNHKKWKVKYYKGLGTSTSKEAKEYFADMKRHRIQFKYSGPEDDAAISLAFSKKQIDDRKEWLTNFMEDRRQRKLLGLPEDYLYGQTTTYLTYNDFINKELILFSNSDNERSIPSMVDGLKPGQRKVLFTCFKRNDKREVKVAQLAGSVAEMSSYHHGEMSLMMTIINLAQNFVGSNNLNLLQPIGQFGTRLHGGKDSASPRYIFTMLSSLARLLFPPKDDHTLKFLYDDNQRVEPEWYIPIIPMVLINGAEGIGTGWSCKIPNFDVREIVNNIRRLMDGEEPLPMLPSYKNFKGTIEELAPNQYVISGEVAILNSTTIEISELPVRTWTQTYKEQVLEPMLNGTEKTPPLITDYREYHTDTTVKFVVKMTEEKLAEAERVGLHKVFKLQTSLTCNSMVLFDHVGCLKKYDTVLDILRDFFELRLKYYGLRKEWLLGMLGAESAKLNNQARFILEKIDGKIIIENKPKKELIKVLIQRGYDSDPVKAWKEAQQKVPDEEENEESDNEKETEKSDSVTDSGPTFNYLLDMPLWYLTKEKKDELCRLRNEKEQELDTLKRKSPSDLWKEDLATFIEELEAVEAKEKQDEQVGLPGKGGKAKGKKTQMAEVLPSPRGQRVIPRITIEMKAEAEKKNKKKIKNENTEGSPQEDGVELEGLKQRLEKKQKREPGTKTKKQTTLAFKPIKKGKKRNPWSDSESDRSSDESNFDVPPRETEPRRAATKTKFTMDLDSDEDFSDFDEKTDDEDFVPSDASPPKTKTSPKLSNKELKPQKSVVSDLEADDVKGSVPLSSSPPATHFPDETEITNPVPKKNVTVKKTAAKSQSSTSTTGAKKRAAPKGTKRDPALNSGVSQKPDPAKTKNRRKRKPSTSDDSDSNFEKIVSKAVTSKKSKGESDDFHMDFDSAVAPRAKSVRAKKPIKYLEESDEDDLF
Text: In order to determine the ability of NSC 35866 to increase the level of topoisomerase II-DNA covalent complexes on DNA in vitro, a new and highly sensitive topoisomerase II DNA cleavage assay having a numeric readout was developed. […] The DNA substrate is a 950 bp linear ^3H-labelled DNA synthesized by PCR in the presence of ^3H-dATP. […] The DNA fragment was isolated from unincorporated dNTPs by ethanol precipitation at 0.3 M NaCl, followed by washing in 70% ethanol. The specific activity of the fragment was typically 10,000-20,000 cpm/μg. Before starting the assay, a drug dilution series comprising 10× the final drug concentration was made. Reaction mixtures containing 100 ng of the 950 bp linear ^3H-labelled DNA, 300 ng human topoisomerase II q, topoisomerase II cleavage buffer (10 mM TRIS-HCL pH 7.9, 50 mM NaCl, 50 mM KCl, 5 mM MgCl2, 1 mM EDTA, 15 μg/mL BSA and 1 mM Na2ATP), and increasing concentrations of drug in 50 μL reaction volumes were then incubated 10 minutes at 37° C. A “no topoisomerase II” sample and a “no drug” sample were always included as controls. Next, the cleavable complex was trapped by adding 5 μL 10% SDS. After vigorous vortexing, 45 uL TE buffer, pH=8.0, was added to obtain 100 μL per sample. 100 μL phenol:chloroform:isoamyl alcohol (25:24:1) equilibrated with TE buffer, pH=8.0, was then added, and the samples were vortexed vigorously for 30 seconds. Finally, the samples were centrifuged at 20,000 g for 2 minutes and 90 μL of the upper water phase was used for scintillation counting using 15 mL of Ultima gold scintillation fluid (Packard).
In order to establish whether NSC 35866 inhibits the DNA strand passage reaction of topoisomerase II by stabilising a covalent reaction intermediate, a new and highly sensitive topoisomerase II DNA cleavage assay having a numeric read-out was developed. This assay is based on the fact that after extraction with phenol-chloroform, protein-bound DNA is removed from the water phase, while naked DNA remains in the water phase. […] Consequently, in reactions containing topoisomerase II and linear DNA, the ability of compounds to remove DNA from the water phase after phenol-chloroform extraction should reflect their potency as topoisomerase II poisons. This assay was first validated by incubating 100 ng of a linear 950 bp PCR DNA fragment with 300 ng of purified human topoisomerase II α in the presence of increasing concentrations of the etoposide and m-AMSA. The DNA fragment was ^3H labelled by performing PCR in the presence of ^3H-dATP. In these experiments, a “no topoisomerase II” sample was always included to determine the level of radioactivity (DNA) retained in the water-phase when no enzyme is present. Within each experiment, the CPM values retained in the water phase in the topoisomerase II reactions were then subtracted from this background CPM value to give Δcpm. Consequently, the Δcpm values of samples with no drug added represent the background level of topoisomerase II-DNA covalent complexes present in the reaction mixture under the assay conditions, while the Δcpm levels in the presence of drugs represent the levels of poison-induced topoisomerase II-DNA covalent complexes.

[2] = target: T2, wild-type human topoisomerase II α (Homo sapiens, UniProt P11388); assay: Topoisomerase II DNA strand passage assay (kDNA decatenation), wild-type enzyme; format: biochemical; conditions: wild-type enzyme
T2 construct: made in house; host or cells: yeast (over-expressing yeast cells)
T2 sequence (P11388 whole entry): as the sequence (P11388 whole entry, one chain of several) above
Experimental: Topoisomerase II catalytic activity (DNA strand passage activity) was measured by using a filter-based kDNA decatenation assay as described in Jensen et al., 2002. Briefly, 200 ng ^3H labelled kDNA isolated from C. fasciculata was incubated with increasing concentrations of drug in 20 μL reaction buffer containing 10 mM TRIS-HCl pH 7.7, 50 mM NaCl, 50 mM KCl, 5 mM MgCl2, 1 mM EDTA, 15 μg/mL BSA and 1 mM ATP using two units of purified wild-type or Y165S mutant topoisomerase II α for 20 minutes at 37° C. (where one unit of activity is defined as the amount of enzyme required for complete decatenation in the absence of drug). After addition of 5× stop buffer (5% Sarkosyl, 0.0025% bromophenol blue, and 50% glycerol), unprocessed kDNA network and decatenated DNA mini-circles were separated by filtering, and the amount of unprocessed kDNA in each reaction was determined by scintillation counting.
FIG. 2 describes the results of studies of the inhibition of topoisomerase II DNA strand passage activity by increasing concentrations of NSC 35866. Inhibition of human topoisomerase II α DNA strand passage activity was assessed by decatenation of tritium-labelled Crithidia fasiculata kDNA using a filter-based assay to separate unprocessed kDNA network from decatenated mini-circles. […] Error bars represent SEM of three independent experiments in panel A and two independent experiments in panel B.
Inhibition of human topoisomerase II α DNA strand passage activity was determined by decatenation of tritium labelled Crithidia fasiculata kDNA as described for FIG. 2. Error bars represent SEM of 3 or 4 independent experiments.

[3] = target: T3, bisdioxopiperazine resistant Y165S mutant human topoisomerase II α (Homo sapiens, UniProt P11388, Y165S); format: biochemical; conditions: FIG. 2-B
T3 construct: made in house; host or cells: yeast (over-expressing yeast cells)
T3 sequence (P11388 whole entry Y165S): as the sequence (P11388 whole entry, one chain of several) above, with Y165S counted along it

human SCLC OC—NYH cells = assay: Clonogenic assay, antagonism of etoposide-induced cytotoxicity; format: cell-based; conditions: 20 μM etoposide, one hour; 20 min pre-exposure
Experimental: Cells were then plated in 0.3% agar in 6 cm petri dishes with sheep red blood cells as feeder layer in triplicate, and were incubated under the same conditions as described above. Plates were counted after 3 weeks.
20 μM etoposide was then added, and the cells were incubated for one hour. Next, the drugs were washed out and the cells were plated and counted after three weeks as described herein.

topoisomerase II α, sequence (P11388 whole entry): as the sequence (P11388 whole entry, one chain of several) above

SMILES: Nc1nc(SCCc2ccccc2)c2nc[nH]c2n1 [NSC 35866, 2-amino-6-(phenylethylthio)-purine]
- effect on amount of extractable topoisomerase II α, in words (topoisomerase II α; 200 μM): no effect
- effect on amount of extractable topoisomerase II α, in words (topoisomerase II α; 500 μM): reduced the amount of extractable topoisomerase II
- effect on amount of extractable topoisomerase II α, in words (topoisomerase II α; 1000 μM): reduced the amount of extractable topoisomerase II
- effect on level of topoisomerase II-DNA covalent complexes, in words [1]: no measurable effect
- concentrations at which DNA strand passage activity is inhibited ([2]; FIG. 2-A): above 250 μM
- inhibition of DNA strand passage (decatenation) activity, in words ([2]; FIG. 2-A and FIG. 5): clearly less potent in comparison with the reference compound ICRF-187
- inhibition of catalytic activity of the Y165S protein, in words [3]: capable of doing so
- reduction of etoposide-induced cytotoxicity (human SCLC OC—NYH cells): up to 50 fold

From US20090209535A1, “6-ETHER/THIOETHER-PURINES AS TOPOISOMERASE II CATALYTIC INHIBITORS AND THEIR USE IN THERAPY” (TOPOTARGET A/S, priority 2005, published 2009)
